Each molecule was assayed on A-673 cells (assay: Cell viability, crystal violet staining). Conditions: Homo sapiens, A673, cell viability, read-out: A-673 IC50 (nM), Cell viability.
Format: cell-based
Description: To measure cell viability, cells were plated in 96-well plastic tissue culture plates at a density of 5×10^3 cells/well. Twenty-four hours after plating, cells were treated with various SMSMs. After 72 hours, the cell culture media were removed and plates were stained with […] of a solution containing 0.5% crystal violet and 25% methanol, rinsed with deionized water, dried overnight, and resuspended in […] citrate buffer (0.1 M sodium citrate in 50% ethanol) to assess plating efficiency. Intensity of crystal violet staining, assessed at 570 nm and quantified using a Vmax Kinetic Microplate Reader and Softmax software (Molecular Devices Corp., Menlo Park, Calif.), were directly proportional to cell number. Data were normalized to vehicle-treated cells and were presented as the mean±SE from representative experiments. SMSMs that are effective were determined for various cells lines.
A-673 cell viability […], splicing (IC50) and brain AUC/Plasma AUC of SMSMs were determined. As shown in the tables below SMSMs had high CNS exposure.

Question: With `Cc1nnc(-c2ccc(-c3ccc(O[C@@H]4C[C@H]5CC[C@@H](C4)N5)nn3)c(O)c2)o1` [compound 247, 2-(6-(((1R,3s,5S)-8-azabicyclo[3.2.1]octan-3-yl)oxy)pyridazin-3-yl)-5-(5-methyl-1,3,4-oxadiazol-2-yl)phenol] as the molecule, how does the IC50 read?
Answer: The IC50 was greater than 1000 nM.

Question: Which IC50 does the source give for `Oc1cc(-n2cccn2)ccc1-c1ccc(O[C@@H]2C[C@H]3CC[C@@H](C2)N3)nn1` [compound 248, 2-(6-(((1R,3s,5S)-8-azabicyclo[3.2.1]octan-3-yl)oxy)pyridazin-3-yl)-5-(1H-pyrazol-1-yl)phenol] here?
Answer: The IC50 was 501 to 1000 nM.

Question: For `CN(c1ccc(-c2ccc(-c3ccn(C)c(=O)c3)cc2O)nn1)[C@H]1C[C@]2(C)CCC[C@](C)(C1)N2` [compound 259, 4-(4-(6-(((1R,3s,5S)-1,5-dimethyl-9-azabicyclo[3.3.1]nonan-3-yl)(methyl)amino)pyridazin-3-yl)-3-hydroxyphenyl)-1-methylpyridin-2(1H)-one], which IC50 is on record?
Answer: Its IC50 is less than 10 nM.

Question: For `CN(c1ccc(-c2ccc(-c3cnn(C)c(=O)c3)cc2O)nn1)[C@H]1C[C@]2(C)CCC[C@](C)(C1)N2` [compound 260, 5-(4-(6-(((1R,3s,5S)-1,5-dimethyl-9-azabicyclo[3.3.1]nonan-3-yl)(methyl)amino)pyridazin-3-yl)-3-hydroxyphenyl)-2-methylpyridazin-3(2H)-one], which IC50 is on record?
Answer: The IC50 was less than 10 nM.

Question: With `CNC(=O)c1cc2cc(-c3ccc(N(C)[C@H]4C[C@]5(C)CCC[C@](C)(C4)N5)nn3)c(O)cc2o1` [compound 261, 5-(6-(((1R,3s,5S)-1,5-dimethyl-9-azabicyclo[3.3.1]nonan-3-yl)(methyl)amino)pyridazin-3-yl)-6-hydroxy-N-methylbenzofuran-2-carboxamide] as the molecule, how does the IC50 read?
Answer: The IC50 was 10 to 100 nM.

Question: How did the IC50 turn out when `C[C@]12CCC[C@](C)(C[C@@H](Oc3ccc(-c4ccc(-c5cn[nH]c5)cc4O)nn3)C1)N2` [compound 262, 2-(6-(((1R,3s,5S)-1,5-dimethyl-9-azabicyclo[3.3.1]nonan-3-yl)oxy)pyridazin-3-yl)-5-(1H-pyrazol-4-yl)phenol] was run?
Answer: Its IC50 is 101 to 250 nM.

Question: `C[C@]12CCC[C@](C)(C[C@@H](Oc3ccc(-c4cc(F)c(-c5cn[nH]c5)cc4O)nn3)C1)N2` [compound 263, 2-(6-(((1R,3s,5S)-1,5-dimethyl-9-azabicyclo[3.3.1]nonan-3-yl)oxy)pyridazin-3-yl)-4-fluoro-5-(1H-pyrazol-4-yl)phenol] was tested. Which IC50 did it give?
Answer: Its IC50 is less than 10 nM.

Question: For `CN(c1ccc(-c2cc(F)c(-c3ccn(C)c(=O)c3)cc2O)nn1)[C@H]1C[C@]2(C)CCC[C@](C)(C1)N2` [compound 265, 4-(4-(6-(((1R,3s,5S)-1,5-dimethyl-9-azabicyclo[3.3.1]nonan-3-yl)(methyl)amino)pyridazin-3-yl)-2-fluoro-5-hydroxyphenyl)-1-methylpyridin-2(1H)-one], which IC50 is on record?
Answer: The IC50 was less than 10 nM.

Question: For `[2H]C([2H])([2H])Oc1cc(-c2ccc(-c3ccc(N(C)[C@H]4C[C@]5(C)CCC[C@](C)(C4)N5)nn3)c(O)c2)cnn1` [compound 268, 2-(6-(((1R,3s,5S)-1,5-dimethyl-9-azabicyclo[3.3.1]nonan-3-yl)(methyl)amino)pyridazin-3-yl)-5-(6-(methoxy-d3)pyridazin-4-yl)phenol], which IC50 is on record?
Answer: The IC50 was less than 10 nM.

Question: `[2H]C([2H])([2H])Oc1cc(-c2cc(O)c(-c3ccc(N(C)[C@H]4C[C@]5(C)CCC[C@](C)(C4)N5)nn3)cc2F)cnn1` [compound 269, 2-(6-(((1R,3s,5S)-1,5-dimethyl-9-azabicyclo[3.3.1]nonan-3-yl)(methyl)amino)pyridazin-3-yl)-4-fluoro-5-(6-(methoxy-d3)pyridazin-4-yl)phenol] was tested. Which IC50 did it give?
Answer: Its IC50 is less than 10 nM.

Question: With `CN(c1ccc(-c2cc(F)c(-c3cn[nH]c3)cc2O)nn1)[C@@H]1C[C@H]2CCC[C@@H](C1)N2` [compound 271, 2-(6-(((1R,3s,5S)-9-azabicyclo[3.3.1]nonan-3-yl)(methyl)amino)pyridazin-3-yl)-4-fluoro-5-(1H-pyrazol-4-yl)phenol] as the molecule, how does the IC50 read?
Answer: Its IC50 is less than 10 nM.

Question: `CN(c1ccc(-c2ccc(-n3ccnc3)cc2O)nn1)[C@@H]1C[C@H]2CCC[C@@H](C1)N2` [compound 272, 2-(6-(((1R,3s,5S)-9-azabicyclo[3.3.1]nonan-3-yl)(methyl)amino)pyridazin-3-yl)-5-(1H-imidazol-1-yl)phenol] was tested. Which IC50 did it give?
Answer: Its IC50 is 10 to 100 nM.

Question: How did the IC50 turn out when `Cc1ncc(-c2ccc(-c3ccc(N(C)[C@@H]4C[C@H]5CCC[C@@H](C4)N5)nn3)c(O)c2)o1` [compound 273, 2-(6-(((1R,3s,5S)-9-azabicyclo[3.3.1]nonan-3-yl)(methyl)amino)pyridazin-3-yl)-5-(2-methyloxazol-5-yl)phenol] was run?
Answer: The IC50 was less than 10 nM.

Question: With `Cc1ncc(-c2cc(O)c(-c3ccc(N(C)[C@@H]4C[C@H]5CCC[C@@H](C4)N5)nn3)cc2F)o1` [compound 274, 2-(6-(((1R,3s,5S)-9-azabicyclo[3.3.1]nonan-3-yl)(methyl)amino)pyridazin-3-yl)-4-fluoro-5-(2-methyloxazol-5-yl)phenol] as the molecule, how does the IC50 read?
Answer: The IC50 was less than 10 nM.

Question: With `CN(c1ccc(-c2ccc(-c3cnn(C)c(=O)c3)cc2O)nn1)[C@@H]1C[C@H]2CCC[C@@H](C1)N2` [compound 280, 5-(4-(6-(((1R,3s,5S)-9-azabicyclo[3.3.1]nonan-3-yl)(methyl)amino)pyridazin-3-yl)-3-hydroxyphenyl)-2-methylpyridazin-3(2H)-one] as the molecule, how does the IC50 read?
Answer: Its IC50 is 10 to 100 nM.

Question: How did the IC50 turn out when `CN(c1ccc(-c2ccc(-c3ccn(C)c(=O)c3)cc2O)nn1)[C@@H]1C[C@H]2CCC[C@@H](C1)N2` [compound 283, 4-(4-(6-(((1R,3s,5S)-9-azabicyclo[3.3.1]nonan-3-yl)(methyl)amino)pyridazin-3-yl)-3-hydroxyphenyl)-1-methylpyridin-2(1H)-one] was run?
Answer: Its IC50 is less than 10 nM.

Question: `CN(c1ccc(-c2cc(F)c(-c3cnn(C)c(=O)c3)cc2O)nn1)[C@@H]1C[C@H]2CCC[C@@H](C1)N2` [compound 286, 5-(4-(6-(((1R,3s,5S)-9-azabicyclo[3.3.1]nonan-3-yl)(methyl)amino)pyridazin-3-yl)-2-fluoro-5-hydroxyphenyl)-2-methylpyridazin-3(2H)-one] was tested. Which IC50 did it give?
Answer: The IC50 was less than 10 nM.

Question: How did the IC50 turn out when `CN(c1ccc(-c2ccc(-c3cnn(C)c3)cc2O)nn1)[C@@H]1C[C@H]2CCC[C@@H](C1)N2` [compound 287, 2-(6-(((1R,3s,5S)-9-azabicyclo[3.3.1]nonan-3-yl)(methyl)amino)pyridazin-3-yl)-5-(1-methyl-1H-pyrazol-4-yl)phenol] was run?
Answer: Its IC50 is less than 10 nM.

Question: With `[2H]C([2H])([2H])n1cc(-c2ccc(-c3ccc(N(C)[C@@H]4C[C@H]5CCC[C@@H](C4)N5)nn3)c(O)c2)cn1` [compound 288, 2-(6-(((1R,3s,5S)-9-azabicyclo[3.3.1]nonan-3-yl)(methyl)amino)pyridazin-3-yl)-5-(1-(methyl-d3)-1H-pyrazol-4-yl)phenol] as the molecule, how does the IC50 read?
Answer: Its IC50 is 10 to 100 nM.

Question: Which IC50 does the source give for `Cc1cc(-c2ccc(-c3ccc(N(C)[C@@H]4C[C@H]5CCC[C@@H](C4)N5)nn3)c(O)c2)cc(=O)n1C` [compound 290, 4-(4-(6-(((1R,3s,5S)-9-azabicyclo[3.3.1]nonan-3-yl)(methyl)amino)pyridazin-3-yl)-3-hydroxyphenyl)-1,6-dimethylpyridin-2(1H)-one] here?
Answer: The IC50 was 251 to 500 nM.

Same assay, conditions: Homo sapiens, A673, read-out: A-673 cell viability (IC50)

Question: Which IC50 does the source give for `CN(c1ccc(-c2ccc(-c3ccn(C)c(=O)c3)cc2O)nn1)[C@H]1C[C@]2(C)CCC[C@](C)(C1)N2` [compound 259, 4-(4-(6-(((1R,3s,5S)-1,5-dimethyl-9-azabicyclo[3.3.1]nonan-3-yl)(methyl)amino)pyridazin-3-yl)-3-hydroxyphenyl)-1-methylpyridin-2(1H)-one] here?
Answer: The IC50 was less than 1 nM.

Same assay, conditions: cell viability, read-out: A-673 IC50 (nM), Cell viability

Question: How did the IC50 turn out when `Oc1cc(-c2cn[nH]c2)ccc1-c1ccc(O[C@@H]2C[C@H]3CCC[C@@H](C2)N3)nn1` [compound 276, 2-(6-(((1R,3s,5S)-9-azabicyclo[3.3.1]nonan-3-yl)oxy)pyridazin-3-yl)-5-(1H-pyrazol-4-yl)phenol] was run?
Answer: The IC50 was 101 to 250 nM.

Reference: patent US11008572B2, “Methods and compositions for modulating splicing” (SKYHAWK THERAPEUTICS, INC., priority 2017, dated 2021)
